One may read the half-life as how long it takes for the measured level to halve.

Molecules are shown by their SMILES. Where two headings read alike, the source gives them in different places.

The nature of the series: Pharmacokinetic evaluation in C57 mice. The class given is in vivo. The settings on record: for Vd / AUC(0-t) / half-life / Cmax / bioavailability / CL/F: both sexes, mouse, plasma; for Vd: read-out: Apparent distribution volume Vss; for AUC(0-t): read-out: Area under curve AUC0-t; for half-life: read-out: Half-life T½ (converted); for Cmax: read-out: Plasma concentration Cmax; for bioavailability: oral, i.g. 2.0 mg/kg vs i.v. 1.0 mg/kg, read-out: Bioavailability F (%); for CL/F: read-out: Clearance rate CL/F; for Clearance rate CL/F: i.v. As to the method: C57 mice were used as test animals. After intragastric (i.g.)/intravenous (i.v.) administration of the compounds of the present disclosure to C57 mice, the plasma concentrations at different time points were measured by the LC/MS/MS method. The pharmacokinetic behavior of the compounds of the present disclosure in C57 mice was studied and their pharmacokinetic profiles were evaluated.
Compound 2 and compound 3.
36 C57 mice, of which half were male and half female, were evenly divided into 4 groups of 9, 3 mice per time point per group. The mice were provided by Vital River Laboratory Animal Technology Co., Ltd. The mice were intragastrically and intravenously administered the compounds.
2.3. Compound Solution Preparation
A certain amount of test compound was weighed out and dissolved in 5% DMSO+5% tween 80+90% normal saline to prepare a 0.1 mg/mL colorless clear solution (for the intragastric administration groups) and a 0.1 mg/mL colorless clear solution (for the intravenous administration groups).
Intragastric administration groups: The dose was 2.0 mg/kg, and the volume was 0.2 mL/10 g.
Intravenous administration groups: The dose was 1.0 mg/kg, and the volume was 0.1 mL/10 g.
Intragastric administration groups: 0.1 mL blood samples were collected before the administration and 0.25 h, 0.5 h, 1.0 h, 2.0 h, 4.0 h, 6.0 h, 8.0 h, 11.0 h and 24.0 h post-dose. The blood samples were placed into EDTA-K2 anticoagulation tubes and centrifuged at 10,000 rpm for 1 min (4° C.), and plasma was separated within 1 h and stored at −80° C. before analysis. The process from the blood collection to the centrifugation was performed in an ice bath.
Intravenous administration groups: Blood samples were collected before administration and 5 min, 0.25 h, 0.5 h, 1.0 h, 2.0 h, 4.0 h, 8.0 h, 11.0 h and 24 h post-dose and were treated in the same way as those collected from the intragastric administration groups.
Measurement of plasma concentrations in C57 mice after compounds were administered in different concentrations: 25 μL samples of the C57 mouse plasma collected at various time points post-dose were taken, and to each of the samples was added 50 μL of diclofenac (an internal standard for compound 2, 100 ng/mL) or 25 μL of tolbutamide (an internal standard for compound 3, […], purchased from LGC Ltd., UK). Protein was precipitated with 200 μL of acetonitrile, and after 5 min of vortexing, the mixtures were centrifuged at 3700 rpm for 10 min. 120 μL of supernatant was taken and vortexed with 30 μL of water for 5 min, and a 5 μL sample was taken for LC/MS/MS analysis. 4. Pharmacokinetic parameters

For `COc1ccccc1S(=O)(=O)Nc1noc2cc(Cn3cccn3)c3c(c12)OCCC3` [Compound 3, N-(5-((1H-pyrazol-1-yl)methyl)-3,4-dihydro-2H-chromeno[8,7-d]isoxazol-9-yl)-2-methoxybenzenesulfonamide], the bioavailability was found to be 94.1%. Also, where the note is “iv, 1.0 mg/kg”, the Vd is 0.102 L/kg, the AUC(0-t) was 209 µg·h/mL, the half-life is 49 h and the Cmax came out at 22100 ng/mL. Besides, under “po, i.g., 2.0 mg/kg”, the AUC(0-t) was determined as 393 µg·h/mL, the CL/F was determined as 1.35 mL/h/kg, the half-life was 58.3 h and the Cmax is 33000 ng/mL. The “Clearance rate CL/F” value (1.0 mg/kg) came to 1.51 mL/h/kg.
With `COc1cccc(OC)c1S(=O)(=O)Nc1noc2cc(Cn3cccn3)c3c(c12)OCCC3` [Compound 2, N-(5-((1H-pyrazol-1-yl)methyl)-3,4-dihydro-2H-chromeno[8,7-d]isoxazol-9-yl)-2,6-dimethoxybenzenesulfonamide], the bioavailability came to 108%. Moreover, for the setting “iv, 1.0 mg/kg”, the Vd was 0.093 L/kg, the AUC(0-t) worked out at 188 µg·h/mL, the half-life is 18.4 h and the Cmax stood at 17600 ng/mL. Where the note is “po, i.g., 2.0 mg/kg”, the AUC(0-t) was 405 µg·h/mL, the CL/F amounted to 1.98 mL/h/kg, the half-life was 29.7 h and the Cmax is 40100 ng/mL. The “Clearance rate CL/F” value (1.0 mg/kg) came to 3.02 mL/h/kg.

These data come from patent US20250145637A1, “SULFONAMIDE DERIVATIVE, PREPARATION METHOD THEREFOR AND MEDICAL USE THEREOF” (Jiangsu Hengrui Pharmaceuticals Co. Ltd., priority 2021, published 2025).
